Source: PubChem BioAssay (NCI)
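Compound exposure: 48 hours, 5 concentrations, 96-well plates. The concentration for 50% growth inhibition is given as GI50. TGI: total growth inhibition.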

Experiments:
Test in all cases: inhibition of tumour cell growth, NCI panel, 48 h
[1] = test system: MALME-3M melanoma
[2] = test system: SR leukemia
[3] = test system: HCC-2998 colon
[4] = test system: EKVX NSCLC
[5] = test system: HL-60(TB) leukemia
[6] = test system: MOLT-4 leukemia
[7] = test system: OVCAR-8 ovarian
[8] = test system: UACC-62 melanoma
[9] = test system: 786-0 renal
[10] = test system: HOP-92 NSCLC

SMILES: CN(CCOc1ccc(C#N)cc1)CCOc1ccc(C#N)cc1
- GI50 [1]: > 100 µM
- TGI [1]: > 100 µM
- GI50 [2]: 5.21 µM
- TGI [2]: 61 µM
- GI50 [3]: > 100 µM
- TGI [3]: > 100 µM
- GI50 [4]: 63.2 µM
- TGI [4]: > 100 µM
- GI50 [5]: 20.7 µM
- TGI [5]: > 100 µM
- GI50 [6]: 15.1 µM
- TGI [6]: 68.7 µM
- GI50 [7]: 29 µM
- TGI [7]: > 100 µM
- GI50 [8]: > 100 µM
- TGI [8]: > 100 µM
- GI50 [9]: > 100 µM
- TGI [9]: > 100 µM

SMILES: CC(=O)n1c2ccccc2c2nc3nc(Oc4ccc(C)cc4)c4ccccc4c3cc21
- TGI [1]: > 100 µM
- TGI [2]: > 100 µM
- TGI [3]: > 100 µM
- TGI [4]: > 100 µM
- TGI [6]: > 100 µM
- TGI [7]: > 100 µM
- TGI [8]: > 100 µM
- TGI [9]: > 100 µM

SMILES: COc1cc([C@@H]2c3cc4c(cc3[C@@H](NC(=O)c3ccccc3)C3COC(=O)[C@@H]32)OCO4)cc(OC)c1O (some centres not stated)
- TGI [1]: 26.6 µM
- TGI [3]: 35.4 µM
- TGI [4]: 87.1 µM
- TGI [5]: 9.44 µM
- TGI [6]: 9.18 µM
- TGI [7]: 37.7 µM
- TGI [10]: 87.9 µM
- TGI [8]: 11.6 µM
- TGI [9]: 21.9 µM

SMILES: COc1ccc(-c2cn(-c3ccccc3)c(-c3ccccc3)n2)cc1OC
- GI50 [1]: 9.17 µM
- TGI [1]: 22.7 µM
- GI50 [3]: 6.39 µM
- TGI [3]: 20.7 µM
- GI50 [4]: 12.1 µM
- TGI [4]: 29.1 µM
- GI50 [5]: 2.34 µM
- TGI [5]: 6.7 µM
- GI50 [6]: 2.96 µM
- TGI [6]: 10.9 µM
- GI50 [7]: 3.01 µM
- TGI [7]: 10.8 µM
- GI50 [10]: 1.82 µM
- TGI [10]: 10.8 µM
- GI50 [8]: 10.4 µM
- TGI [8]: 22.6 µM
- GI50 [9]: 3.56 µM
- TGI [9]: 13.5 µM

SMILES: O=C1CC[C@@H](S(=O)(=O)c2ccccc2)[C@@H](/C=C/c2ccccc2)O1
- TGI [1]: > 100 µM
- TGI [2]: > 100 µM
- TGI [3]: > 100 µM
- TGI [4]: > 100 µM
- TGI [5]: > 100 µM
- TGI [6]: > 100 µM
- TGI [7]: > 100 µM
- TGI [8]: > 100 µM
- TGI [9]: > 100 µM

SMILES: COc1c(N2CCN(CN3C(=O)C(=Nc4ccc(S(=O)(=O)Nc5ncccn5)cc4)c4ccccc43)C(C)C2)c(F)cc2c(=O)c(C(=O)O)cn(C3CC3)c12 (configuration not stated)
- GI50 [2]: 12.5 µM
- TGI [2]: > 50 µM
- GI50 [4]: > 50 µM
- TGI [4]: > 50 µM
- GI50 [5]: > 50 µM
- TGI [5]: > 50 µM
- GI50 [6]: 17 µM
- TGI [6]: > 50 µM
- GI50 [7]: 21.4 µM
- TGI [7]: > 50 µM
- GI50 [8]: 36.9 µM
- TGI [8]: > 50 µM
- GI50 [9]: > 50 µM
- TGI [9]: > 50 µM

SMILES: COc1cc(-c2cn(-c3ccc(Cl)cc3)c(C)c2C(=O)C(F)(F)F)cc(OC)c1OC
- GI50 [1]: > 100 µM
- TGI [1]: > 100 µM
- GI50 [2]: 4.92 µM
- TGI [2]: > 100 µM
- GI50 [3]: > 100 µM
- TGI [3]: > 100 µM
- GI50 [4]: 51.3 µM
- TGI [4]: > 100 µM
- GI50 [6]: 6.01 µM
- TGI [6]: > 100 µM
- GI50 [7]: > 100 µM
- TGI [7]: > 100 µM
- GI50 [10]: 2.27 µM
- TGI [10]: 56 µM
- GI50 [8]: > 100 µM
- TGI [8]: > 100 µM
- GI50 [9]: > 100 µM
- TGI [9]: > 100 µM

SMILES: COc1cc[nH]c1/C=C1\C(=O)Nc2ccc(F)c(I)c21
- GI50 [1]: > 25 µM
- TGI [1]: > 25 µM
- GI50 [2]: > 25 µM
- TGI [2]: > 25 µM
- GI50 [3]: > 25 µM
- TGI [3]: > 25 µM
- GI50 [5]: > 25 µM
- TGI [5]: > 25 µM
- GI50 [6]: > 25 µM
- TGI [6]: > 25 µM
- GI50 [7]: > 25 µM
- TGI [7]: > 25 µM
- GI50 [10]: > 25 µM
- TGI [10]: > 25 µM
- GI50 [8]: > 25 µM
- TGI [8]: > 25 µM
- GI50 [9]: > 25 µM
- TGI [9]: > 25 µM
